Measurements from paper PMC10572575, “Design, Synthesis, and Potent Anticancer Activity of Novel Indole-Based Bcl-2 Inhibitors” (International Journal of Molecular Sciences, 2023).

Columns and labels:
MDA-MB-231 cells = assay: MTT cytotoxicity assay, MDA-MB-231; format: cell-based; conditions: Homo sapiens, 48 h, mean ± SEM of three
Protocol: (§1) MDA-231 triple-negative breast cancer cells, MCF-7 breast cancer cells, and A549 adenocarcinomic human alveolar basal epithelial cells were maintained in Roswell Park Memorial Institute media (RPMI 1640, Sigma-Aldrich, St. Louis, MO, USA) supplemented with 10% foetal bovine serum and 1% penicillin/streptomycin. HDF human dermal normal fibroblast cells were cultured in Dulbecco’s Modified Eagle Medium (DMEM, Sigma-Aldrich, Eppelheim, Germany). MCF-7 breast cancer cell line was obtained from Cell Lines Service (CLS; Eppelheim, Germany). MDA-MB-231 breast cancer cell line and A549 cancer cells were obtained from the European Collection of Authenticated Cell Cultures (ECACC; Gillingham UK). Cell lines were maintained at 37 °C in a humidified incubator with 5% CO2.
(§2) The antiproliferative activity of compounds U1–6 was assessed using the 3-[4,5-dimethylthiazol-2-yl]-2,5-diphenyl tetrazolium bromide (MTT) assay, as previously described. Cancer cell lines were seeded in 96-well flatbottom plates at a density of 10^4 cells/well for 24 h. The cells were subsequently treated with U1–6 compounds at a screening concentration of 50 µM and incubated at 37 °C for 48 h in a humidified incubator containing 5% CO2. […] DMSO was used as a negative vehicle control (1% concentration). The culture media were then removed and incubated for 2 h with fresh 200 µL culture media containing 5 mg/mL MTT. After removing the culture media and dissolving the produced formazan crystals in 100 µL DMSO, they were incubated for another 30 min at 37 °C. The produced colour was measured at 570 nm using a microplate reader (Thermo-Scientific, Vantaa, Finland). The GraphPad Prism version 9.1 software was used to generate plots of absorbance versus the compound’s concentration. Three independent repeat experiments were performed for each concentration to ensure reproducibility. IC50 values were obtained from nonlinear regression plots of absorbance versus the log concentration of the tested compounds using the GraphPad Prism software version 5.0 (San Diego, CA, USA).

MCF-7 cells [1] = assay: MTT cytotoxicity assay, MCF-7; format: cell-based; conditions: Homo sapiens, MCF7, 48 h, mean ± SEM of three
Protocol: as §1, §2

A549 cells = assay: MTT cytotoxicity assay, A549; format: cell-based; conditions: Homo sapiens, 48 h, mean ± SEM of three
Protocol: as §1, §2

[2] = tested on: HDF human dermal normal fibroblast cells; assay: Safety profile on HDF normal fibroblasts; format: cell-based; conditions: 50 µM, 24 hrs
Protocol: as §1
as §2, with “h.” for “h. The cells were subsequently treated with U1–6 compounds at a screening concentration of 50 µM and incubated at 37 °C for 48 h in a humidified incubator containing 5% CO2.”

Bcl-2 protein = molecular target: T1, Bcl-2 protein (Homo sapiens, UniProt P10415); assay: Bim ELISA binding assay (Bcl-2–Bim binding); conditions: mean ± SEM of three, read-out: IC50 using ELISA against Bcl-2
T1 construct: purchased Thermo-Scientific BMS244-3
T1 sequence (P10415 whole entry): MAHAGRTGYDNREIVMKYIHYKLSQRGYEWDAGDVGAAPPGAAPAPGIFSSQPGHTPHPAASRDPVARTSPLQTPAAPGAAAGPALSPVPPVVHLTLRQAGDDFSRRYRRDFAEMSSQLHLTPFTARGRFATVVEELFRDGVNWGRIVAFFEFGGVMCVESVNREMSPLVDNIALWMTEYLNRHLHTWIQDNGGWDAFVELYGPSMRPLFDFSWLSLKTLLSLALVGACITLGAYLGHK
Protocol: A Bim-binding assay (Thermo-Scientific, Catalogue No # BMS244-3, Vienna, Austria) was performed according to previously published data. PBS solution containing 0.05% Tween-20 was used to wash a streptavidin-coated 96-well plate. For immobilisation, biotinylated Bim peptide (residues 81–106) was diluted in SuperBlock blocking solution and applied to each well. After incubation, the plate was washed with 0.5% BSA in PBS with Tween-20 solution. […] After another wash, each well received anti-His antibody with horseradish peroxidase enzyme. Following incubation and washing, O-phenylenediamine and hydrogen peroxide solution were added for colour production. A plate reader (Thermo-Scientific, Vantaa, Finland) was used to measure the optical density at 450 nm. The reduction in Bim affinity was measured using a nonlinear regression curve (GraphPad Prism. Version 5.0), which was also utilized to generate the IC50 value of Bcl-2 inhibition.

MCF-7 cells [3] = assay: Annexin-V-FITC apoptosis assay; format: cell-based, human; conditions: MCF-7, 24 h
Protocol: The Annexin-V-FITC apoptosis detection kit (Catalog # k101-25, Biovision, Mountain View, USA) was used for the apoptosis experiment according to previously published data. MCF-7 cells were treated with U2 compound for 24 h. The negative control was 0.1% DMSO. The cells were collected via centrifugation and resuspended in 500 µL of 1X Binding Buffer. Treated and control cells were stained with 5 µL Annexin V-FITC and 5 µL propidium iodide (PI […]) and then incubated at room temperature for 5 min in the dark. Fluorescence-activated cell sorting (FACS) was quantified via flow cytometry. Flow cytometry (excision at 488 nm; emission at 530 nm) was used to examine Annexin V-FITC binding and PI staining using the FITC signal detector and a phycoerythrin emission signal detector [71].

MCF-7 cells [4] = assay: Cell cycle assay (PI flow cytometry); format: cell-based, human; conditions: MCF-7, 24 h, at IC50 concentration
Protocol: DMSO vehicle was used as a negative control (1% concentration). The cells were collected, centrifuged, and fixed in 70% ethanol on ice for 20 min. The fixed cells were incubated for 1 h at room temperature with staining solution ([…] propidium iodide PI, 0.05% Triton X-100, 0.1 mg/mL RNaseA). A Gallios flow cytometer (Beckman Coulter, Brea, CA, USA) was used to measure the cell cycle proportion.

Row | SMILES | IC50 (MDA-MB-231 cells) [µM] | IC50 (MCF-7 cells [1]) [µM] | IC50 (A549 cells) [µM] | Inhibitory activity against HDF cells compared with the negative control [2] | melting point [°C] | IC50 (Bcl-2 protein) [µM] | Increase in early apoptosis compared with control untreated cells (MCF-7 cells [3]) [fold] | Increase in late apoptosis compared with control untreated cells (MCF-7 cells [3]) [fold] | Cell cycle effect (MCF-7 cells [4])
1 | O=C(CSc1nnc(-c2c[nH]c3ccccc23)n1-c1ccc(Cl)cc1)Nc1ccc(NC(=O)CN2CCOCC2)cc1 [Compound U5, 2-(4-(4-Chlorophenyl)-5-(1H-indol-3-yl)-4H-1,2,4-triazol-3-ylthio)-N-(4-(2-morpholinoacetamido)phenyl)acetamide] | 45.1 ± 1.15 | 34.4 ± 2.2 | 47.8 ± 3.7 | no significant change | 208 to 210 |  |  |  | 
2 | COc1ccc(-n2c(SCC(=O)Nc3ccc(NC(=O)CN4CCOCC4)cc3)nnc2-c2c[nH]c3ccccc23)cc1 [Compound U2, 2-(5-(1H-Indol-3-yl)-4-(4-methoxyphenyl)-4H-1,2,4-triazol-3-ylthio)-N-(4-(2-morpholinoacetamido)phenyl)acetamide] | 5.22 ± 0.55 | 0.83 ± 0.11 | 0.73 ± 0.07 | limited toxicity | 173 to 175 | 1.2 ± 0.02 | 43 | 111 | cell cycle arrest at the G1/S phase
3 | Cc1ccc(-n2c(SCC(=O)Nc3ccc(NC(=O)CN4CCOCC4)cc3)nnc2-c2c[nH]c3ccccc23)cc1 [Compound U3, 2-(5-(1H-Indol-3-yl)-4-methylphenyl-4H-1,2,4-triazol-3-ylthio)-N-(4-(2-morpholinoacetamido)phenyl)acetamide] | 4.07 ± 0.35 | 1.17 ± 0.1 | 2.98 ± 0.19 | no significant change | 250 to 252 | 11.1 ± 0.07 |  |  | 
4 | Cc1cc2c(C(C)C)c(O)c(O)c(C=O)c2c(O)c1-c1c(C)cc2c(C(C)C)c(O)c(O)c(C=O)c2c1O [Gossypol, reference compound] | 5.5 ± 0.35 | 4.43 ± 0.54 | 3.45 ± 0.4 |  |  |  |  |  | 
5 | O=C(CSc1nnc(-c2c[nH]c3ccccc23)n1-c1ccc(Cl)c(Cl)c1)Nc1ccc(NC(=O)CN2CCOCC2)cc1 [Compound U6] | 79.4 ± 4.04 | 35.5 ± 2.14 | 66.5 ± 0.62 | limited toxicity | 218 to 220 |  |  |  | 
6 | O=C(CSc1nnc(-c2c[nH]c3ccccc23)n1-c1cccc(Cl)c1)Nc1ccc(NC(=O)CN2CCOCC2)cc1 [Compound U4, 2-(4-(3-Chlorophenyl)-5-(1H-indol-3-yl)-4H-1,2,4-triazol-3-ylthio)-N-(4-(2-morpholinoacetamido)phenyl) acetamide] | 28.4 ± 1.79 | 11 ± 1.2 | 16.1 ± 1.4 | no significant change | 220 to 222 |  |  |  | 
7 | O=C(CSc1nnc(-c2c[nH]c3ccccc23)n1-c1ccc(F)cc1)Nc1ccc(NC(=O)CN2CCOCC2)cc1 [Compound U1, 2-(4-(4-Fluorophenyl)-5-(1H-indol-3-yl)-4H-1,2,4-triazol-3-ylthio)-N-(4-(2 morpholinoacetamido)phenyl)acetamide] | 20.7 ± 0.85 | 5.05 ± 0.8 | 13.3 ± 0.58 | no significant change | 208 to 210 |  |  |  | 
